Measurements reported in patent US9896445B2, “Heterocyclic inhibitors of ERK1 and ERK2 and their use in the treatment of cancer” (Asana Biosciences, LLC, priority 2015, dated 2018).

Experiments:
ERK1 = biological target: T1, ERK1 (Homo sapiens, UniProt P27361); assay: ERK1 HTRF (biochemical) assay
T1 construct: purchased Jubilant Biosys
Experimental: ERK1 and ERK2 HTRF (Biochemical) Assays
These assays employed a homogeneous time resolved fluorescence (HTRF) technique. […] The plate was incubated at room temperature for 60 min with shaking. […] The IC50 values (half maximal inhibitory concentration values) were subsequently determined using a sigmoidal dose-response curve (variable slope) in GraphPad Prism® 5 software.

ERK2 = biological target: T2, ERK2 (Homo sapiens, UniProt P28482); assay: ERK2 HTRF (biochemical) assay
T2 construct: purchased Jubilant Biosys
How it was run: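 Readout was time-resolved FRET between europium anti-phospho-MBP and streptavidin-APC after a 60-min room-temperature kinase step. That step used ERK2 (25 nM in enzyme mix), biotinylated MBP peptide (1 uM) and ATP (24 uM) from the substrate mix, in pH 7.5 Tris buffer.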

T2 sequence (P28482 whole entry): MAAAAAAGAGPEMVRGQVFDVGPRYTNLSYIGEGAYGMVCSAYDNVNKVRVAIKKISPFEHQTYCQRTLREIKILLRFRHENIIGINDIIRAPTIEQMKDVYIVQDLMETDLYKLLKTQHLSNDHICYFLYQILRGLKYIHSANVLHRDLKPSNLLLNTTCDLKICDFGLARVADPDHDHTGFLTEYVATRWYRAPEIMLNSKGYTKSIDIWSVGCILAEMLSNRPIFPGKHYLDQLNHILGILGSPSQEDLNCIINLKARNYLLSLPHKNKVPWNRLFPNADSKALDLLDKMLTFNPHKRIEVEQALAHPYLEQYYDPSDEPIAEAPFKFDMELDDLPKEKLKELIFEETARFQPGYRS
T1 sequence (P27361 whole entry): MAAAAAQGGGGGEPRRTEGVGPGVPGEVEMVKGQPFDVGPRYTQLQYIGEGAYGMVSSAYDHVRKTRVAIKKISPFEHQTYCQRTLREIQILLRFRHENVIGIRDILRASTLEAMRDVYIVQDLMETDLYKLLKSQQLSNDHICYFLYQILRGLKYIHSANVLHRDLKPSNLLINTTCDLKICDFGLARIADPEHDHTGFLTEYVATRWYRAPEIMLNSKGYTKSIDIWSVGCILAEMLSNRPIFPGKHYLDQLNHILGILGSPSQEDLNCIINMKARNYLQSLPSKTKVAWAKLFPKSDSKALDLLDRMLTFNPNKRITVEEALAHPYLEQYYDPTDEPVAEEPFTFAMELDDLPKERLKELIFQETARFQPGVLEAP

| Compound | IC50 (ERK1; HTRF) | IC50 (ERK2; HTRF) | IC50 (ERK1; HTRF biochemical assay) | IC50 (ERK2; HTRF biochemical assay) |
| --- | --- | --- | --- | --- |
| Cc1cccc(C(CO)NC(=O)c2ccn(-c3nc(N[C@H]4CCOC4)ncc3C)c2)c1 (stereo partly drawn) [Compound 187, N-(2-hydroxy-1-(m-tolyl)ethyl)-1-(5-methyl-2-(((S)-tetrahydrofuran-3-yl)amino)pyrimidin-4-yl)-1H-pyrrole-3-carboxamide] | < 50 nM | ≤ 50 nM | – | – |
| Cc1cnc(Nc2ccccc2Cl)nc1-n1cc(NC(=O)N[C@H](CO)c2cccc(Cl)c2)cn1 [Compound 2] | < 50 nM | 50 to 100 nM | – | – |
| Cc1cnc(NC2CCCOC2)nc1-n1ccc(C(=O)N[C@H](CO)c2cccc(Cl)c2)c1 (stereo partly drawn) [Compound 156, N-((S)-1-(3-chloro-phenyl)-2-hydroxy-ethyl)-1-(5-methyl-2-((tetrahydro-2H-pyran-3-yl)amino)-pyrimidin-4-yl)-1H-pyrrole-3-carboxamide] | < 50 nM | ≤ 50 nM | – | – |
| Cc1cnc(Nc2ccc(N3CCOCC3)cc2)nc1-n1ccc(C(=O)NC(CO)c2cccc(Cl)c2)c1 (centres unmarked) [Compound 205, N-(1-(3-chlorophenyl)-2-hydroxyethyl)-1-(5-methyl-2-((4-morpholinophenyl)amino)pyrimidin-4-yl)-1H-pyrrole-3-carboxamide] | < 50 nM | ≤ 50 nM | – | – |
| Cc1cc(Nc2ncc(C)c(-n3ccc(C(=O)NC(CO)c4cccc(Cl)c4)c3)n2)ccc1C1CCNCC1 (centres unmarked) [Compound 182, N-(1-(3-chloro-phenyl)-2-hydroxyethyl)-1-(5-methyl-2-((3-methyl-4-(piperidin-4-yl)phenyl)-amino)pyrimidin-4-yl)-1H-pyrrole-3-carboxamide] | < 50 nM | ≤ 50 nM | – | – |
| Cc1cnc(Nc2ccc3c(c2)OC(C)(C)O3)nc1-n1ccc(C(=O)NC(CO)c2cccc(Cl)c2)c1 (centres unmarked) [Compound 96, N-(1-(3-chloro-phenyl)-2-hydroxyethyl)-1-(2-((2,2-dimethyl-benzo[d][1,3]dioxol-5-yl)amino)-5-methylpyrimidin-4-yl)-1H-pyrrole-3-carboxamide] | < 50 nM | ≤ 50 nM | – | – |
| CC[C@H](CO)Nc1cc(-n2cnc(C(=O)NC(CO)c3cccc(Cl)c3)c2)c(Cl)cn1 (stereo partly drawn) [Compound 168, 1-(5-chloro-2-(((R)-1-hydroxybutan-2-yl)amino)pyridin-4-yl)-N-(1-(3-chlorophenyl)-2-hydroxyethyl)-1H-imidazole-4-carboxamide] | < 50 nM | 50 to 100 nM | – | – |
| Cc1cnc(Nc2ccc(F)c(N3CCNCC3)c2)nc1-n1ccc(C(=O)NC(CO)c2cccc(Cl)c2)c1 (centres unmarked) [Compound 213, N-(1-(3-chlorophenyl)-2-hydroxyethyl)-1-(2-((4-fluoro-3-(piperazin-1-yl)phenyl)amino)-5-methylpyrimidin-4-yl)-1H-pyrrole-3-carboxamide] | < 50 nM | ≤ 50 nM | – | – |
| CC[C@@H](CO)Nc1cc(-n2ccc(C(=O)NC(CO)c3ccccc3)c2)c(C)cn1 (stereo partly drawn) [Compound 100, N-(2-hydroxy-1-phenylethyl)-1-(2-(((S)-1-hydroxy-butan-2-yl)amino)-5-methylpyridin-4-yl)-1H-pyrrole-3-carboxamide] | 50 to 100 nM | ≤ 50 nM | – | – |
| O=C(Nc1cnn(-c2ccnc(NC3CC3)n2)c1)NC(CO)c1cccc(Cl)c1 (centres unmarked) [Compound 16, 1-(1-(3-chlorophenyl)-2-hydroxyethyl)-3-(1-(2-(cyclopropyl-amino)pyrimidin-4-yl)-1H-pyrazol-4-yl)urea] | 100 to 500 nM | 50 to 100 nM | – | – |
| O=C(NC(CO)c1ccccc1)c1ccn(-c2nc(Nc3ccccc3Cl)ncc2F)c1 (centres unmarked) [Compound 67, 1-(2-((2-chloro-phenyl)amino)-5-fluoropyrimidin-4-yl)-N-(2-hydroxy-1-phenylethyl)-1H-pyrrole-3-carboxamide] | < 50 nM | ≤ 50 nM | – | – |
| Cc1cnc(NC2CC=CCC2)nc1-n1cnc(C(=O)N[C@H](CN)c2cccc(Cl)c2)c1 (stereo partly drawn) [Example 292, N-((S)-2-amino-1-(3-chlorophenyl)-ethyl)-1-(2-(cyclohex-3-en-1-ylamino)-5-methyl-pyrimidin-4-yl)-1H-imidazole-4-carboxamide] | < 50 nM | ≤ 50 nM | – | – |
| CN(C(=O)Nc1cnn(-c2ccnc(NC3CC3)n2)c1)[C@H](CO)c1ccccc1 [Compound 18, (S)-3-(1-(2-(cyclopropylamino)pyrimidin-4-yl)-1H-pyrazol-4-yl)-1-(2-hydroxy-1-phenylethyl)-1-methylurea] | < 50 nM | 100 to 500 nM | – | – |
| Cc1cnc(Nc2cccc3c2OC(F)(F)O3)nc1-n1ccc(C(=O)NC(CO)c2cccc(Cl)c2)c1 (centres unmarked) [Compound 160, N-(1-(3-chloro-phenyl)-2-hydroxy-ethyl)-1-(2-((2,2-difluoro-benzo[d][1,3]dioxol-4-yl)amino)-5-methylpyrimidin-4-yl)-1H-pyrrole-3-carboxamide] | < 50 nM | ≤ 50 nM | – | – |
| Cc1cnc(NC2CCOC(C)C2)nc1-n1cnc(C(=O)N[C@H](CO)c2cccc(Cl)c2)c1 (stereo partly drawn) [Compound 251, N-((S)-1-(3-chlorophenyl)-2-hydroxyethyl)-1-(5-methyl-2-((2-methyltetrahydro-2H-pyran-4-yl)amino)pyrimidin-4-yl)-1H-imidazole-4-carboxamide] | < 50 nM | ≤ 50 nM | – | – |
| Cc1cnc(Nc2ccc(F)cc2)nc1-n1cc(C(=O)NC(CO)c2ccccc2)nc1C (centres unmarked) [Compound 153, 1-(2-((4-Fluorophenyl)amino)-5-methylpyrimidin-4-yl)-N-(2-hydroxy-1-phenylethyl)-2-methyl-1H-imidazole-4-carboxamide] | 100 to 500 nM | 100 to 500 nM | – | – |
| Cc1cnc(Nc2ccc3c(c2)OC(F)(F)O3)nc1-n1ccc(C(=O)NC(CO)c2ccccc2)c1 (centres unmarked) [Compound 63, 1-(2-((2,2-difluoro-benzo[d][1,3]dioxol-5-yl)amino)-5-methylpyrimidin-4-yl)-N-(2-hydroxy-1-phenylethyl)-1H-pyrrole-3-carboxamide] | < 50 nM | ≤ 50 nM | – | – |
| Cc1cnc(Nc2ccc(F)c(N3CCOCC3)c2)nc1-n1cnc(C(=O)NC(CO)c2cccc(Cl)c2)c1 (centres unmarked) [Compound 223, N-(1-(3-chlorophenyl)-2-hydroxyethyl)-1-(2-((4-fluoro-3-morpholinophenyl)amino)-5-methyl-pyrimidin-4-yl)-1H-imidazole-4-carboxamide] | < 50 nM | ≤ 50 nM | – | – |
| Cc1cnc(NC2CCOCC2)nc1-n1cnc(C(=O)NC(CO)c2cccc(C(C)(C)C)c2)c1 (centres unmarked) [Example 258, N-(1-(3-(tert-butyl)phenyl)-2-hydroxyethyl)-1-(5-methyl-2-((tetrahydro-2H-pyran-4-yl)amino)-pyrimidin-4-yl)-1H-imidazole-4-carboxamide] | < 50 nM | ≤ 50 nM | – | – |
| Cc1cnc(Nc2ccc3c(c2)OC(F)(F)O3)nc1-n1cnc(C(=O)NCc2cccc(Cl)c2CO)c1 [Example 332, N-(3-chloro-2-(hydroxymethyl)-benzyl)-1-(2-((2,2-difluorobenzo[d] [1,3]dioxol-5-yl)amino)-5-methylpyrimidin-4-yl)-1H-imidazole-4-carboxamide] | – | – | < 50 nM | ≤ 50 nM |
| CC(C)C[C@H](CO)Nc1nccc(-n2cc(NC(=O)N[C@H](CO)c3cccc(Cl)c3)cn2)n1 [Compound 13, 1-((S)-1-(3-chlorophenyl)-2-hydroxyethyl)-3-(1-(2-(((R)-1-hydroxy-4-methylpentan-2-yl)amino)pyrimidin-4-yl)-1H-pyrazol-4-yl)urea] | 100 to 500 nM | 100 to 500 nM | – | – |
| O=C(N[C@H](CO)c1cccc(Cl)c1)c1cn(-c2ccnc(Nc3ccccc3)c2)cn1 [Compound 72, (S)-N-(1-(3-chlorophenyl)-2-hydroxyethyl)-1-(2-(phenylamino)pyridin-4-yl)-1H-imidazole-4-carboxamide] | < 50 nM | ≤ 50 nM | – | – |
| Cc1cnc(Nc2ccc(F)cc2)cc1-n1ccc(C(=O)NC(CN)c2ccccc2)c1 (centres unmarked) [Compound 98, N-(2-amino-1-phenylethyl)-1-(2-((4-fluorophenyl)-amino)-5-methyl-pyridin-4-yl)-1H-pyrrole-3-carboxamide] | < 50 nM | ≤ 50 nM | – | – |
| Cc1cnc(NC2CCOCC2)nc1-n1cnc(C(=O)NCc2cccc(Cl)c2F)c1 [Example 309, N-(3-chloro-2-fluorobenzyl)-1-(5-methyl-2-((tetrahydro-2H-pyran-4-yl)amino)-pyrimidin-4-yl)-1H-imidazole-4-carboxamide] | – | – | < 50 nM | ≤ 50 nM |
| Cc1cnc(Nc2ccc(F)cc2)nc1-n1cnc(C(=O)NC(CO)c2cccc(Cl)c2)c1 (centres unmarked) [Compound 155, N-(1-(3-chlorophenyl)-2-hydroxyethyl)-1-(2-((4-fluoro-phenyl)amino)-5-methylpyrimidin-4-yl)-1H-imidazole-4-carboxamide] | < 50 nM | ≤ 50 nM | – | – |
| CC[C@@H](CO)Nc1ncc(C)c(-n2cnc(C(=O)N[C@H](CO)c3cccc(Cl)c3)c2)n1 [Compound 220, N-((S)-1-(3-chlorophenyl)-2-hydroxyethyl)-1-(2-(((S)-1-hydroxy-butan-2-yl)amino)-5-methylpyrimidin-4-yl)-1H-imidazole-4-carboxamide] | < 50 nM | ≤ 50 nM | – | – |
| O=C(Nc1cnn(-c2ccnc(Nc3ccccc3Cl)n2)c1)N[C@@H](CO)c1ccccc1 [Compound 4, (R)-1-(1-(2-((2-chlorophenyl)amino)pyrimidin-4-yl)-1H-pyrazol-4-yl)-3-(2-hydroxy-1-phenylethyl)urea] | > 2500 nM | > 2500 nM | – | – |
| Cc1cnc(Nc2ccc3c(c2)OC(F)(F)O3)cc1-n1ccc(C(=O)NC(CO)c2cccc(Cl)c2)c1 (centres unmarked) [Compound 92, N-(1-(3-chlorophenyl)-2-hydroxyethyl)-1-(2-((2,2-difluoro-benzo[d][1,3]dioxol-5-yl)amino)-5-methylpyridin-4-yl)-1H-pyrrole-3-carboxamide] | < 50 nM | ≤ 50 nM | – | – |
